Reference: patent US10072065B2, “Peptide-mediated delivery of immunoglobulins across the blood-brain barrier” (Mayo Foundation for Medical Education and Research, priority 2015, dated 2018)

System: blood-brain barrier (BBB)
Experiment: Transportation of Evan's Blue (EB) across the BBB after IV Apo-I or peptide-cetuximab complex
Format: in vivo, mouse
Settings: ~40 μL 2% EB only, IV femoral vein, brain evaluated approximately 2 hours after dye (brain number 1)
Protocol: To explore whether Apo-I transports an antibody across the BBB, the peptide or a peptide-cetuximab complex were first injected by IV followed by injection of Evan's Blue (EB; a routinely used small molecule blue dye with a molecular weight of 960.81) by IV into the femoral vein of a mouse. Cardiac perfusion was performed and the brains of the mice were removed and evaluated approximately 2 hours following injection of the dye. As a control, injection of EB only was used. The particulars of each administration are as follows: • 1) ˜40 μL 2% EB only was injected. • 2) 300 μg of Apo-I was injected first, then ˜40 μL 2% EB was injected. • 3) 600 μg of Apo-I was injected first, then ˜40 μL 2% EB was injected. • 4) 600 μg of Apo-I was mixed with 200 μg cetuximab prior to injection and then injected first, then ˜40 μL 2% EB was injected.

EB reaching the brain (blue coloring of brain): cannot reach the brain
SMILES: Cc1cc(-c2ccc(/N=N/c3ccc4c(S(=O)(=O)[O-])cc(S(=O)(=O)[O-])c(N)c4c3O)c(C)c2)ccc1/N=N/c1ccc2c(S(=O)(=O)[O-])cc(S(=O)(=O)[O-])c(N)c2c1O.[Na+].[Na+].[Na+].[Na+] [EB, Evan's Blue]
